Legend:
Format in all cases: in vivo, human
[1] = test system: adult subjects with schizophrenia; experiment: Calgary Depression Scale for Schizophrenia (CDSS), Clinical Study Two; conditions: for CDSS score, treatment effect (bifeprunox, placebo): Endpoint LOCF; for mean change (SD) from Baseline to Endpoint in CDSS score: ITT
Experimental: Rating scale assessments were performed weekly, except for week 5, to measure the change from baseline to endpoint of the PANSS total score. Other assessments included: PANSS positive symptom subscale score, PANSS negative symptom subscale score, PANSS general pschopathology subscale score, BPRS total score, BPRS psychosis score, the CGI-S score, the CGI-I score, responder rates based on the PANSS total score, and the Calgary Depression Scale for Schizophrenia (CDSS). […]
Subjects who completed this study had the option to continue in the long-term. […] Risperidone-treated subjects were titrated from 2 mg to 6 mg daily over a three-day period and were subsequently maintained at 6 mg/day for the remainder of the treatment period. […] Blood samples were also obtained at Screening/Baseline, Week 3, and Week 6 for clinical laboratory assessments.

[2] = test system: adult subjects with schizophrenia; experiment: SAS, BAS and AIMS movement scales, Clinical Study Two
Experimental: Pharmacokinetic (PK) data of bifeprunox in schizophrenic subjects were also assessed and are presented in a separate report (combined with data from study S1543003).
The SAS is used to measure Parkinsonian-type symptoms in patients exposed to antipsychotics. The scale consists of 10 items, each rated on a 5-point scale ranging from 0 (complete absence of the condition) to 4 (presence of the condition in extreme form). The SAS total score is defined as the sum of all item scores, and the range is 0 to 40. A SAS total score of up to 3 is considered normal.
The BAS is used to rate observable, restless movements of drug-induced akathisia as well as the subjective awareness of restlessness and any distress associated with the akathisia. The scale consists of 3 items that is rated from 0 (no evidence of akathisia) to 3 (severe akathisia). The BAS total score is defined as the sum of the these three BAS item scores and ranges from is 0 to 9. In addition, a global clinical assessment of akathisia is rated from 0 (no evidence of akathisia) to 5 (severe akathisia).
The AIMS, designed to record the occurrence of dyskinetic movements, consists of 12 items. Items 1 to 7 measure specific involuntary movements on a scale from 0 (none) to 4 (severe). Items 8 to 10 measure global assessment of abnormal movement on a scale from 0 (no awareness) to 4 (aware, severe distress). Items 11 and 12 are questions regarding the dental condition of the patient, with yes/no answers. The total score is calculated by summing AIMS items 1 through 10 and ranges from 0 to 40; the non-global total score is calculated by summing items 1 through 7.

[3] = Body weight, Clinical Study Two
[4] = test system: adult subjects with schizophrenia; experiment: PANSS responder rates, Clinical Study Three; conditions: for PANSS 20% definition response rate No, % / PANSS 20% definition response rate Yes, %: Week 6/Endpoint, LOCF; for 20% PANSS responder rate: Endpoint LOCF
Experimental: There were four treatment arms in this study, approximately 144 subjects per arm. […] After completing the Single-Blind Placebo Lead-in Period of at least three days, bifeprunox-treated subjects were titrated from 0.25 mg up to 20 mg/day or 30 mg/day according to a standardized titration scheme over a seven- or eight-day period, respectively. When the assigned dose was reached, subjects were maintained at that dose for the remainder of the six week treatment period. […] Subjects were hospitalized (if not already inpatients) after eligibility for study entry was verified, starting from the Screening Visit until at least 10 days after Baseline. Subjects could be hospitalized longer than 10 days if considered medically necessary by the Investigator. Rating scale assessments for efficacy and abnormal movement disorders were done weekly except for Week 5. Safety assessments were performed at Screening, during treatment and at the end of the study. Subject satisfaction with study medication was assessed at Week 6. Samples of whole blood were obtained at Weeks 2, 4, and 6 for determination of bifeprunox in plasma.
CLINICAL STUDY THREE. A PANSS responder was defined as a subject whose PANSS total score decreased by 20% or more from Baseline to Endpoint. As exploratory analyses, responder rates were also analyzed using a 30%, 35%, 40%, and 50% definition of responder.

O=c1[nH]c2cccc(N3CCN(Cc4cccc(-c5ccccc5)c4)CC3)c2o1 [Bifeprunox, 7-[4-([1,1′-biphenyl]-3-ylmethyl)-1-piperazinyl]-2(3H)-benzoxazolone]
Change from Baseline in CDSS Total Score, Median ([1]; 40 mg, Week 4, LOCF): 0.0
Change from Baseline in CDSS Total Score, Mean (SD) ([1]; 40 mg, Week 6/Endpoint, LOCF): 0.01 (3.66)
Change from Baseline in CDSS Total Score, Median ([1]; 40 mg, Week 6/Endpoint, LOCF): 0.0
CDSS score, treatment effect (bifeprunox, placebo) ([1]; bifeprunox 30 mg): −0.38
mean change (SD) from Baseline to Endpoint in CDSS score ([1]; bifeprunox 30 mg, LOCF): −0.66 (3.64)
CDSS score, treatment effect (bifeprunox, placebo) ([1]; bifeprunox 40 mg): 0.29
mean change (SD) from Baseline to Endpoint in CDSS score ([1]; bifeprunox 40 mg, LOCF): 0.01 (3.66)
SAS shifts from normal at Baseline to abnormal at Endpoint ([2]; Bifeprunox 30 mg): < 1%
SAS shifts from normal at Baseline to abnormal at Endpoint ([2]; Bifeprunox 40 mg): 4%
subjects with abnormal SAS scores at Endpoint ([2]; Bifeprunox 40 mg): 7%
Weight, Baseline Mean of subjects with Endpoint change ([3]; Bifeprunox 30 mg): 168.1 lbs
Weight, Baseline Mean of subjects with Week 6 change ([3]; Bifeprunox 30 mg): 166.1 lbs
Weight, Baseline, Max ([3]; Bifeprunox 30 mg): 360 lbs
Weight, Baseline, Mean (SD) ([3]; Bifeprunox 30 mg): 169.2 (55.3) lbs
Weight, Baseline, Median ([3]; Bifeprunox 30 mg): 161 lbs
Weight, Baseline, Min ([3]; Bifeprunox 30 mg): 84 lbs
Weight, Change from Baseline at Endpoint, Max ([3]; Bifeprunox 30 mg): 9 lbs
Weight, Change from Baseline at Endpoint, Mean (SD) ([3]; Bifeprunox 30 mg): −2.2 (6.7) lbs
Weight, Change from Baseline at Endpoint, Median ([3]; Bifeprunox 30 mg): 0 lbs
Weight, Change from Baseline at Endpoint, Min ([3]; Bifeprunox 30 mg): −32 lbs
Weight, Change from Baseline at Week 6, Max ([3]; Bifeprunox 30 mg): 8 lbs
Weight, Change from Baseline at Week 6, Mean (SD) ([3]; Bifeprunox 30 mg): −4.3 (8.2) lbs
Weight, Change from Baseline at Week 6, Median ([3]; Bifeprunox 30 mg): −2 lbs
Weight, Change from Baseline at Week 6, Min ([3]; Bifeprunox 30 mg): −32 lbs
mean weight change at Endpoint ([3]; Bifeprunox 30 mg): −2.2 lbs
Weight, Baseline Mean of subjects with Endpoint change ([3]; Bifeprunox 40 mg): 160.7 lbs
Weight, Baseline Mean of subjects with Week 6 change ([3]; Bifeprunox 40 mg): 162.0 lbs
Weight, Baseline, Max ([3]; Bifeprunox 40 mg): 378 lbs
Weight, Baseline, Mean (SD) ([3]; Bifeprunox 40 mg): 161.9 (46.6) lbs
Weight, Baseline, Median ([3]; Bifeprunox 40 mg): 155 lbs
Weight, Baseline, Min ([3]; Bifeprunox 40 mg): 84 lbs
Weight, Change from Baseline at Endpoint, Max ([3]; Bifeprunox 40 mg): 15 lbs
Weight, Change from Baseline at Endpoint, Mean (SD) ([3]; Bifeprunox 40 mg): −1.9 (5.8) lbs
Weight, Change from Baseline at Endpoint, Median ([3]; Bifeprunox 40 mg): −1 lbs
Weight, Change from Baseline at Endpoint, Min ([3]; Bifeprunox 40 mg): −18 lbs
Weight, Change from Baseline at Week 6, Max ([3]; Bifeprunox 40 mg): 10 lbs
Weight, Change from Baseline at Week 6, Mean (SD) ([3]; Bifeprunox 40 mg): −3.1 (5.8) lbs
Weight, Change from Baseline at Week 6, Median ([3]; Bifeprunox 40 mg): −2 lbs
body weight (in words) ([3]; bifeprunox 30, 40 mg, 6 weeks): Small comparable decreases in body weight
PANSS 20% definition response rate No, % ([4]; 20 mg): 58%
PANSS 20% definition response rate Yes, % ([4]; 20 mg): 42%
PANSS 20% definition response rate No, % ([4]; 30 mg): 61%
PANSS 20% definition response rate Yes, % ([4]; 30 mg): 39%
20% PANSS responder rate ([4]; bifeprunox 20 mg): 42%
20% PANSS responder rate ([4]; bifeprunox 30 mg): 39%

— patent publication US20090068290A1, “BIFEPRUNOX DOSES FOR TREATING SCHIZOPHRENIA” (priority 2006, published 2009)
